Assays:
Type in all cases: binding
[1] = target: T1, dihydroorotase (ScDHOase) (Saccharomyces cerevisiae, UniProt P20051); assay: Kd by intrinsic fluorescence quenching
T1 construct: gene URA4
T1 sequence (P20051 1-364): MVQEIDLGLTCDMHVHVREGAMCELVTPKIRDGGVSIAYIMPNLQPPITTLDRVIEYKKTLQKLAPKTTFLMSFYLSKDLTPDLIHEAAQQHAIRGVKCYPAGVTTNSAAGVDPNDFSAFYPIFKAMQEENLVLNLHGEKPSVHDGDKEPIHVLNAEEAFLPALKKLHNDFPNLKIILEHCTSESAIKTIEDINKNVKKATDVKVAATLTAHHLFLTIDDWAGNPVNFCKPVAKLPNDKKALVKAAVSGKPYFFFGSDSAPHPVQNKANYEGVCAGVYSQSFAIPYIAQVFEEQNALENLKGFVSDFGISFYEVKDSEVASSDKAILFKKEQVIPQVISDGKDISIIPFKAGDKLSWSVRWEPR

[2] = target: T2, dihydroorotase (ScDHOase-T106A) (Saccharomyces cerevisiae, UniProt P20051, T106A); assay: intrinsic fluorescence quenching titration
T2 construct: gene URA4

[3] = target: T3, dihydroorotase (ScDHOase-R18A) (Saccharomyces cerevisiae, UniProt P20051, R18A); assay: intrinsic fluorescence quenching titration
T3 construct: gene URA4
T3 sequence (P20051 whole entry R18A): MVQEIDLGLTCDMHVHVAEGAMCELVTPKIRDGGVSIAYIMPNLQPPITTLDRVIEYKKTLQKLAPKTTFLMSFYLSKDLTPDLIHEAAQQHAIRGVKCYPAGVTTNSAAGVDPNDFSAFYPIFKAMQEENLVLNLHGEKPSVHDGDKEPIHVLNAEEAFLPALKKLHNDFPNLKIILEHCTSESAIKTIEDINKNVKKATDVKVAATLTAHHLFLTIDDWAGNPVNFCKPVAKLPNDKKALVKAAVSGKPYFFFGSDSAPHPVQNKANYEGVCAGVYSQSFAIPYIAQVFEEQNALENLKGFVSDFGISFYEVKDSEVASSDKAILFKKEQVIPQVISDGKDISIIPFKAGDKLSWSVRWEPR

T2 sequence (P20051 whole entry T106A): as the sequence (P20051 whole entry R18A) above, with A18R, T106A counted along it

Structure (SMILES): O=C(O)c1[nH]c(=O)[nH]c(=O)c1F [5-FOA, 5-fluoroorotate]
- Kd [1]: 83.8 ± 1.5 µM
- Kd [2]: 115 ± 3.7 µM
- Kd [3]: 144 ± 2.1 µM

Reference: publication PMC8497156, “Complexed Crystal Structure of Saccharomyces cerevisiae Dihydroorotase with Inhibitor 5-Fluoroorotate Reveals a New Binding Mode” (Bioinorganic Chemistry and Applications, 2021)
